Earlier results in US20230046278A1, “METHOD FOR COLOURING KERATIN MATERIAL, COMPRISING THE USE OF AN ORGANIC C1-C6 ALKOXYSILANE AND TWO STRUCTURALLY DIFFERENT CELLULOSE TYPES” (Henkel AG & Co. KGaA, priority 2019, published 2023).
≈ marks a conversion by molar mass, not a printed value.

Conditions: 25° C.

| solubility in water | Compound | also measured |
| --- | --- | --- |
| more than 7 g/L | O=S(=O)(O)c1ccc(N=Nc2c(O)ccc3ccccc23)cc1 [Acid Orange 7, 4-[(2-hydroxy-1-naphthyl)azo]benzenesulfonate] | – |
| – | O=C(O)C1=NN(c2ccc(S(=O)(=O)O)cc2)C(=O)C1N=Nc1ccc(S(=O)(=O)O)cc1 (centres unmarked) [Acid Yellow 23, 4,5-dihydro-5-oxo-1-(4-sulfophenyl)-4-((4-sulfophenyl)azo)-1H-pyrazole-3-carboxylic acid] | solubility in water (in words): readily soluble |
| above 40 g/L | O=[N+]([O-])c1cc([N+](=O)[O-])c2ccc(S(=O)(=O)O)cc2c1O [Acid Yellow 9, 8-hydroxy-5,7-dinitro-2-naphthalenesulfonic acid] | – |
| – | CCN(Cc1cccc(S(=O)(=O)O)c1)c1ccc(C(=C2C=CC(=[N+](CC)Cc3cccc(S(=O)(=O)O)c3)C=C2)c2ccccc2S(=O)(=O)[O-])cc1 [Acid Blue 9] | water solubility: greater than 20 % by weight |

| Compound | solubility in water | also measured |
| --- | --- | --- |
| Nc1cc(S(=O)(=O)O)cc2cc(S(=O)(=O)O)c(N=Nc3ccccc3)c(O)c12 [Acid Red 33, 5-amino-4-hydroxy-3-(phenylazo)-naphthalene-2,7-disulphonate] | 2500 µg/mL (≈ 5.9 mM) | – |
